Structures are written as SMILES. Structures can show the parent of a compound that is named as a salt.

The record followed here is patent publication US9546164B2 (GENENTECH, INC., priority 2013, dated 2017).

The first assay deals with hNav1.7 (Homo sapiens (Human), UniProt Q15858). Put plainly: Tritiated sulfonamide competitive binding to membranes from cells expressing hNav1.7 and the β1 subunit.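 Further: Filter-bound radioactivity counted by liquid scintillation, nonspecific binding defined with excess unlabelled ligand, IC50 fitted to percent inhibition of specific binding.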
Chain of hNav1.7 (Q15858 other isoform, or with tags, fused parts or gaps): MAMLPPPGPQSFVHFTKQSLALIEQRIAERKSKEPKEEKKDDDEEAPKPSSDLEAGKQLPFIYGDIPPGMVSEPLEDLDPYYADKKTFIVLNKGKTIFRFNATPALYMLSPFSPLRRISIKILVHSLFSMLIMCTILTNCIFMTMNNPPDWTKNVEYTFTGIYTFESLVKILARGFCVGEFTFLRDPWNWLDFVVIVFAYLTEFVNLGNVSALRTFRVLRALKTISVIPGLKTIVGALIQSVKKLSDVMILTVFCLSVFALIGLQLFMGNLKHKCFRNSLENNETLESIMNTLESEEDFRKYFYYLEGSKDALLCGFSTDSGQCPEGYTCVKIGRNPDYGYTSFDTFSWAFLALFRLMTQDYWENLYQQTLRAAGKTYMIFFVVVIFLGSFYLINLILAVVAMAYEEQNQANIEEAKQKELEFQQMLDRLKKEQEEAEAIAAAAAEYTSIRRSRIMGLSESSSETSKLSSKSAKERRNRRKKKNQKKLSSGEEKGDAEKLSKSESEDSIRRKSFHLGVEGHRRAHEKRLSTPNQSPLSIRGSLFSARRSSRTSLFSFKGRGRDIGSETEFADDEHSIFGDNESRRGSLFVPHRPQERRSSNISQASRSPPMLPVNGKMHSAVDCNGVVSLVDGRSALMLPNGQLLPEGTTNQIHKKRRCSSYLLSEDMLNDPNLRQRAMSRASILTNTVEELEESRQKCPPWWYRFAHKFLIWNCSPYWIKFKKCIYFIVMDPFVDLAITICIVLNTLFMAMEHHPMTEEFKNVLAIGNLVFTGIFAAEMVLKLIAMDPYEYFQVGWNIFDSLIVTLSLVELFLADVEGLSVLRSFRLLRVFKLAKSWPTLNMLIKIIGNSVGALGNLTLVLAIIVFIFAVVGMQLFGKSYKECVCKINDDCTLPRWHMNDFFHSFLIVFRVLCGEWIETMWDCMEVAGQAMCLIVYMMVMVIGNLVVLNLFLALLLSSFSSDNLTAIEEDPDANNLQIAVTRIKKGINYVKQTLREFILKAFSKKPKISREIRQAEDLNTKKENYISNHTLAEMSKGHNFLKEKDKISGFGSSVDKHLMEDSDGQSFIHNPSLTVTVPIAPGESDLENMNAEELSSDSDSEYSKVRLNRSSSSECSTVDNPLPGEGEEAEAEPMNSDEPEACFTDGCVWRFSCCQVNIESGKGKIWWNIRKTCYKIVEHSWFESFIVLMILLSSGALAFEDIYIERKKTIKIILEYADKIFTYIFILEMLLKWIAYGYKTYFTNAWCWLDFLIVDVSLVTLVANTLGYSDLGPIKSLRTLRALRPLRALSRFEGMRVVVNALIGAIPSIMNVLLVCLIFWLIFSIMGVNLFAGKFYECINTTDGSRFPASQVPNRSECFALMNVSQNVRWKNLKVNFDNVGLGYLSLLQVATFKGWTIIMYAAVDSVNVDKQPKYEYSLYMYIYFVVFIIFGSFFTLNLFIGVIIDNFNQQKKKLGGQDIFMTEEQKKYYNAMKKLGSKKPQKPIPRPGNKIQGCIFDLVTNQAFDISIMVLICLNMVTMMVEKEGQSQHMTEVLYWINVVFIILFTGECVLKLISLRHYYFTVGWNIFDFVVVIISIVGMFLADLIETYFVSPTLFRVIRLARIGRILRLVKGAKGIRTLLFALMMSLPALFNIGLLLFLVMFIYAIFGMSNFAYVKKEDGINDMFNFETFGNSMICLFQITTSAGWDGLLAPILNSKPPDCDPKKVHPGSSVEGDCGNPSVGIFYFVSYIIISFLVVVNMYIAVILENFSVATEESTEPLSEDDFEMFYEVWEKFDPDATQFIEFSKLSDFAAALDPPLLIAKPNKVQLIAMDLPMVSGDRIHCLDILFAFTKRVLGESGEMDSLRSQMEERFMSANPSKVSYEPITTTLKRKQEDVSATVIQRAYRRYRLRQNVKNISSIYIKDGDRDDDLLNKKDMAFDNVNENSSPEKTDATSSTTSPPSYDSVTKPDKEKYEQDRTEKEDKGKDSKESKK
Chain of hNav1.7 (Q07699 19-218 partner): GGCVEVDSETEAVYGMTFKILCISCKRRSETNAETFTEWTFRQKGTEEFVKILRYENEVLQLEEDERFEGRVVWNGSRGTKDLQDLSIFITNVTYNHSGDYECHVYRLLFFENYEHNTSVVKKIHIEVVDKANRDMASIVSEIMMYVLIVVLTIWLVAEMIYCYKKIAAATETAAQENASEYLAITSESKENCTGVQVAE
Conditions: not given
Regarding `CC(C)(C)N1CCC[C@@H](Oc2cc(F)c(C(=O)NS(=O)(=O)C3CC3)cc2C2CC2)C1` [Example 539, (R)-4-((1-(tert-butyl)piperidin-3-yl)oxy)-5-cyclopropyl-N-(cyclopropylsulfonyl)-2-fluorobenzamide], the IC50 is 2280 nM.
`CS(=O)(=O)NC(=O)c1cc(C2CC2)c(CN2CCC(Oc3ccc(Cl)cc3Cl)CC2)cc1F` [Example 546, 5-cyclopropyl-4-((4-(2,4-dichlorophenoxy)piperidin-1-yl)methyl)-2-fluoro-N-(methylsulfonyl)benzamide, trifluoroacetic acid salt] showed an IC50 of 11.9 nM.
Still for that read-out and setting: with `C[C@H](c1cc(Cl)cc(Cl)c1)N1C[C@@H]2C[C@H]1CN2Cc1cc(F)c(C(=O)NS(=O)(=O)C2CC2)cc1C1CC1` (single isomer, unassigned) [Example 563, trifluoroacetic acid salt] the figure was 4.2 nM.
Still for that read-out and setting: with `O=C(NS(=O)(=O)C1CC1)c1cc(C2CC2)c(O[C@@H]2CCCN(Cc3ccc(Cl)c(Cl)c3)C2)cc1F` [Example 18, (R)-5-cyclopropyl-N-(cyclopropylsulfonyl)-4-((1-(3,4-dichlorobenzyl)-piperidin-3-yl)oxy)-2-fluorobenzamide] the figure was 2.6 nM; with `CC1(C)CN(Cc2cc(F)c(C(=O)NS(C)(=O)=O)cc2C2CC2)CCC1Oc1cc(C(F)(F)F)c(Cl)cn1` (stereo not drawn) [Example 561, 4-((4-((5-chloro-4-(trifluoromethyl)pyridin-2-yl)oxy)-3,3-dimethylpiperidin-1-yl)methyl)-5-cyclopropyl-2-fluoro-N-(methylsulfonyl)benzamide, trifluoroacetic acid salt], 2.8 nM; with `O=C(NS(=O)(=O)N1CCC1)c1cc(C2CC2)c(O[C@@H]2CCCN(Cc3cc(Cl)cc(Cl)c3)C2)cc1F` [Example 5, (R)—N-(azetidin-1-ylsulfonyl)-5-cyclopropyl-4-((1-(3,5-dichlorobenzyl)piperidin-3-yl)oxy)-2-fluoroenzamide], 7.1 nM.
On to `O=C(NS(=O)(=O)C1CC1)c1cc(Cl)c(O[C@@H]2CCCN(Cc3ccc(F)cc3Cl)C2)cc1F.O=C(O)C(Cl)(Cl)Cl` [Example 39, (R)-5-chloro-4-((1-(2-chloro-4-fluorobenzyl)piperidin-3-yl)oxy)-N-(cyclopropylsulfonyl)-2-fluorobenzamide, trichloroacetic acid salt], for which the IC50 stood at 6.8 nM.
In turn, `CS(=O)(=O)NC(=O)c1cc(C2CC2)c(CN2CCC(Oc3ccc(Cl)c(C(F)(F)F)c3)CC2)cc1F` [Example 519, 4-((4-(4-chloro-3-(trifluoromethyl)phenoxy)piperidin-1-yl)methyl)-5-cyclopropyl-2-fluoro-N-(methylsulfonyl)benzamide, trifluoroacetic acid salt] had an IC50 of 8.1 nM.

The same assay, now with this note: read-out: Ligand Binding Assay; 100 pM [3H]compound, membranes with hNav1.7 and β1 subunit, 18 h, room temperature.
As to `CC(c1cc(Cl)cc(Cl)c1F)N1CCC(COc2cc(F)c(C(=O)NS(C)(=O)=O)cc2C2CC2)CC1` (stereo in doubt) [Example 236, (R)-5-cyclopropyl-4-((1-(1-(3,5-dichloro-2-fluorophenyl)ethyl)piperidin-4-yl)methoxy)-2-fluoro-N-(methylsulfonyl)benzamide], the IC50 is 1.6 nM.
Same read-out and setting: with `CS(=O)(=O)NC(=O)c1cc(C2CC2)c(OCC2CCN(S(=O)(=O)c3ccc(Br)c(F)c3)CC2)cc1F` [Example 368, 4-((1-((4-bromo-3-fluorophenyl)sulfonyl)piperidin-4-yl)methoxy)-5-cyclopropyl-2-fluoro-N-(methylsulfonyl)benzamide] the figure was 25.1 nM; with `O=C(NS(=O)(=O)N1CCC1)c1cc(C2CC2)c(OCC2CCN(c3ccccc3)CC2)cc1F` [Example 291, N-(azetidin-1-ylsulfonyl)-5-cyclopropyl-2-fluoro-4-((1-phenylpiperidin-4-yl)methoxy)benzamide], 11 nM.
Still for that read-out and setting: with `O=C(NS(=O)(=O)N1CCC1)c1cc(C2CC2)c(CN2CCO[C@H](Cc3ccc(F)cc3Cl)C2)cc1F` [Example 468, (R)-N-(azetidin-1-ylsulfonyl)-4-((2-(2-chloro-4-fluorobenzyl)morpholino)methyl)-5-cyclopropyl-2-fluorobenzamide, trifluoroacetic acid salt] the figure was 11.3 nM; with `CS(=O)(=O)NC(=O)c1cc(C2CC2)c(OC[C@H]2CCCN(Cc3ccc(F)cc3Cl)C2)cc1F` [Example 335, (S)-4-((1-(2-chloro-4-fluorobenzyl)piperidin-3-yl)methoxy)-5-cyclopropyl-2-fluoro-N-(methylsulfonyl)benzamide], 14.3 nM.
The same measure, in the same setting: with `CS(=O)(=O)NC(=O)c1cc(C2CC2)c(OCC2CCN(S(=O)(=O)c3ccc(C(F)(F)F)cc3Cl)CC2)cc1F` [Example 384, 4-((1-((2-chloro-4-(trifluoromethyl)phenyl)sulfonyl)piperidin-4-yl)methoxy)-5-cyclopropyl-2-fluoro-N-(methylsulfonyl)benzamide] the figure was 16.3 nM.
As to `CS(=O)(=O)NC(=O)c1cc(C2CC2)c(OCC2CCN(Cc3cc(C(F)(F)F)cc(C4CC4)n3)CC2)cc1F` [Example 306, 5-cyclopropyl-4-((1-((6-cyclopropyl-4-(trifluoromethyl)pyridin-2-yl)methyl)piperidin-4-yl)methoxy)-2-fluoro-N-(methylsulfonyl)benzamide], the IC50 was determined as 6 nM.
In the case of `COC[C@@H](c1cc(Cl)cc(Cl)c1)N1CCC(C)(COc2cc(F)c(C(=O)NS(C)(=O)=O)cc2C2CC2)CC1` (single isomer, unassigned) [Example 172], the IC50 amounted to 3.9 nM.
On to `CS(=O)(=O)NC(=O)c1cc(C2CC2)c(OCC2CCN(C(c3ccc(F)cc3Cl)C(F)(F)F)CC2)cc1F` (stereo not drawn) [Example 300, 4-((1-(1-(2-chloro-4-fluorophenyl)-2,2,2-trifluoroethyl)piperidin-4-yl)methoxy)-5-cyclopropyl-2-fluoro-N-(methylsulfonyl)benzamide], for which the IC50 worked out at 1.6 nM.
For the compound `CS(=O)(=O)NC(=O)c1cc(C2CC2)c(OCC2CCN(CC3(C(F)(F)F)CCCC3)CC2)cc1F` [Example 329, 5-cyclopropyl-2-fluoro-N-(methylsulfonyl)-4-((1-((1-(trifluoromethyl)cyclopentyl)methyl)piperidin-4-yl)methoxy)benzamide trifluoroacetic acid salt], the IC50 came out at 3.3 nM.
As for `CS(=O)(=O)NC(=O)c1cc(C2CC2)c(CN2CCC(Oc3ccc(C(F)(F)F)cn3)CC2)cc1F` [Example 476, 5-cyclopropyl-2-fluoro-N-(methylsulfonyl)-4-((4-((5-trifluoromethyl)pyridin-2-yl)oxypiperidin-1-yl)methyl)benzamide, trifluoroacetic acid salt], the IC50 is 37.2 nM.
On the same count and under the same terms, to `O=C(NS(=O)(=O)C1CC1)c1cc(C2CC2)c(OCC2CCN(CCC(F)(F)F)CC2)cc1F` [Example 193, 5-Cyclopropyl-N-(cyclopropylsulfonyl)-2-fluoro-4-((1-(3,3,3-trifluoropropyl)piperidin-4-yl)methoxy)benzamide] belongs 52 nM; to `C[C@@H](c1cc(F)cc(C(F)(F)F)c1)N1CCC(C)(COc2cc(F)c(C(=O)NS(C)(=O)=O)cc2C2CC2)CC1` (single isomer, unassigned) [Example 171], 5 nM.
In the case of `CS(=O)(=O)NC(=O)c1cc(C2CC2)c(O[C@@H]2CCCN(Cc3cc(Cl)ccc3O)C2)cc1F` [Example 427, (R)-4-((1-(5-chloro-2-hydroxybenzyl)piperidin-3-yl)oxy)-5-cyclopropyl-2-fluoro-N-(methylsulfonyl)benzamide, trifluoroacetic acid salt], the IC50 worked out at 19 nM.
Same read-out and setting: with `Cc1ccc(CN2CCC(COc3cc(F)c(C(=O)NS(C)(=O)=O)cc3C3CC3)CC2)cc1` [Example 93, 5-Cyclopropyl-2-fluoro-4-((1-(4-methylbenzyl)piperidin-4-yl)methoxy)-N-(methylsulfonyl)benzamide] the figure was 173 nM; with `CS(=O)(=O)NC(=O)c1cc(C2CC2)c(OCC2CN([C@@H](c3ccccc3)c3ccc(OC(F)(F)F)cc3)C2)cc1F` [Example 112, (S)-5-Cyclopropyl-2-fluoro-N-(methylsulfonyl)-4-((1-(phenyl(4-(trifluoromethoxy)phenyl)methyl)azetidin-3-yl)methoxy)benzamide], 3.35 nM; with `O=C(NS(=O)(=O)N1CCC1)c1cc(Cl)c(OCC2CCN(Cc3cc(Cl)cc(OC(F)(F)F)c3)CC2)cc1F` [Example 408, N-(azetidin-1-ylfulfonyl)-5-chloro-4-((1-(3-chloro-5-(trifluoromethoxy)benzyl)piperidin-4-yl)methoxy)-2-fluorobenzamide, trifluoroacetic acid suit], 22.7 nM.
As for `CS(=O)(=O)NC(=O)c1cc(C2CC2)c(CN2CCO[C@@H](Cc3ccc(Cl)c(Cl)c3)C2)cc1F` [Example 461, (S)-5-cyclopropyl-4-((2-(3,4-dichlorobenzyl)morpholino)methyl)-2-fluoro-N-(methylsulfonyl)benzamide], the IC50 amounted to 42.1 nM.
For `C[C@@H](c1cc(Cl)cc(C(F)(F)F)c1)N1CCC(C)(COc2cc(F)c(C(=O)NS(C)(=O)=O)cc2C2CC2)CC1` (single isomer, unassigned) [Example 279], the IC50 is 4 nM.
On the same count and under the same terms, with `O=C(NS(=O)(=O)C1CC1)c1cc(C2CC2)c(OCC2CCN(C3(c4cc(Cl)cc(Cl)c4)COC3)CC2)cc1F` [Example 175, 5-Cyclopropyl-N-(cyclopropylsulfonyl)-4-((1-(3-(3,5-dichlorophenyl)oxetan-3-yl)piperidin-4-yl)methoxy)-2-fluorobenzamide] the figure was 5.2 nM; with `CS(=O)(=O)NC(=O)c1cc(C2CC2)c(OCC2CN([C@@H](c3ccccc3)c3ccccn3)C2)cc1F` [Example 118, (S)-5-Cyclopropyl-2-fluoro-N-(methylsulfonyl)-4-((1-(phenyl(pyridin-2-yl)methyl)azetidin-3-yl)methoxy)benzamide], 417 nM; with `COc1ccc(CN2CCC[C@@H](Oc3cc(F)c(C(=O)NS(=O)(=O)C4CC4)cc3C3CC3)C2)cc1F` [Example 313, (R)-5-cyclopropyl-N-(cyclopropylsulfonyl)-2-fluoro-4-((1-(3-fluoro-4-methoxybenzyl)piperidin-3-yl)oxy)benzamide], 9.1 nM.
